The test system of experiment [1] is HCV RLuc subgenomic replicon (genotype 1b) in Huh-7.5 cells. Nature of the experiment: HCV subgenomic replicon assay (Renilla luciferase). Format: cell-based, hepatitis C virus. The following applies: for inhibition at 10 µM: Hepatitis C virus. The text has this:
An HCV Renilla luciferase reporter construct (HCV RLuc; Huang, et al. (2006) Hepatology 43:81-90) was used to measure the effect of each compound on cellular HCV RNA levels. In HCV RLuc, the HCV internal ribosome entry site (IRES) drives the translation of the neomycin and Renilla luciferase genes while the HCV nonstructural proteins (NS3 to NS5B) are translated from the Encephalomyocarditis virus IRES (Huang, et al. (2006) supra). The plasmid DNA was cleaved with ScaI, purified by phenol/chloroform extraction followed by ethanol precipitation, and used as template for RNA transcription using […] T7 RNA transcription kit (Ambion, Austin, Tex.). The RNA transcripts were treated with 2 U DNase I (Ambion) at 37° C. for 30 minutes, purified by acid phenol/chloroform extraction, followed by isopropanol precipitation, and suspended in diethylpyrocarbonate-treated water. RNA concentration was determined by spectrophotometry by measuring the A260. RNA integrity and size was checked on 1% agarose gel. Transcribed RNA was stored in aliquots at −80° C. until needed.
Huh-7.5 cells were transfected with HCV RNA by electroporation. Briefly, subconfluent Huh7.5 cells were trypsinized, suspended in complete growth medium, and centrifuged at 1,000×g for 5 minutes at 4° C. The cell pellets were then washed twice with ice-cold phosphate-buffered saline (PBS) and suspended at 1.75×10^7 cells/mL in ice-cold PBS. Replicon RNA (5 μg) was mixed with 0.4 mL of cell suspension and transferred to 2 mm gap width electroporation cuvette (EPPENDORF AG, Germany) and pulsed 5 times for 99 μsec at 820 V over 1.1 sec intervals using the ECM 830 electroporator instrument (BTX Harvard Apparatus, Holliston, Mass.). After a 5 minute recovery period at room temperature, cells were transferred to 10 ml complete growth medium, and seeded into 10 cm diameter cell culture dishes. Twenty-four hours after transfection, the medium was replaced with fresh complete DMEM supplemented with 1 mg/ml geneticin (Invitrogen) and the medium was replaced every three to four days with fresh medium containing 1 mg/mL geneticin. Geneticin-resistant colonies were selected for a period of two weeks and expanded in the presence of 250 μg/mL geneticin.
HCV RLuc replicon cells were seeded at a density of 10×10^3 cells per well in 96-well plates and incubated for 4-5 hours to allow the cells to attach to the plate. The compounds dissolved in dimethyl sulfoxide (DMSO) were added at a final concentration of 10 μM (DMSO solvent final concentration was 0.5%) and the cells were incubated for 72 hours at 37° C. under 5% CO2 atmosphere. The effects of compounds on HCV replication were then assessed by measuring the Renilla luciferase activity in compound-treated versus DMSO-treated cells. At the end of the incubation period, the medium was aspirated and the cells were washed with 1×PBS. The Renilla luciferase reporter gene assay was performed using the Renilla luciferase assay kit (PROMEGA, Madison, Wis.) according to the manufacturer's instructions. Briefly, the cells were lysed by addition of 50 μL of 1× Renilla luciferase lysis buffer followed by two cycles of freeze/thaw. The luciferase activity content of the lysate was measured with a FLUOSTAR Omega microplate reader instrument (BMG Labtech, Germany) after injecting 50 μL of luciferase substrate and reading for 5 seconds.
To determine if the above identified compounds might be useful as HCV antiviral agents, they were added to cells harboring HCV subgenomic RNA replicon. The HCV replicon chosen was derived from the same HCV strain (genotype 1b) as the NS3 protein used for screening and enzyme assays. […] 75:4614-4624; Blight, et al. (2002) J. Virol. 76:13001-13014). […]
In general terms: Replicon systems follow genome replication, usually without infectious particles.

For experiment [2], the target named is T1, NS3h_2a(JFH1) (Hepatitis C virus genotype 2a, UniProt Q99IB8).
T1 construct: truncated C-terminally His-tagged NS3 proteins lacking the N-terminal protease, called NS3h; His-tag (C); made in house
T1 sequence (Q99IB8 1196-1661): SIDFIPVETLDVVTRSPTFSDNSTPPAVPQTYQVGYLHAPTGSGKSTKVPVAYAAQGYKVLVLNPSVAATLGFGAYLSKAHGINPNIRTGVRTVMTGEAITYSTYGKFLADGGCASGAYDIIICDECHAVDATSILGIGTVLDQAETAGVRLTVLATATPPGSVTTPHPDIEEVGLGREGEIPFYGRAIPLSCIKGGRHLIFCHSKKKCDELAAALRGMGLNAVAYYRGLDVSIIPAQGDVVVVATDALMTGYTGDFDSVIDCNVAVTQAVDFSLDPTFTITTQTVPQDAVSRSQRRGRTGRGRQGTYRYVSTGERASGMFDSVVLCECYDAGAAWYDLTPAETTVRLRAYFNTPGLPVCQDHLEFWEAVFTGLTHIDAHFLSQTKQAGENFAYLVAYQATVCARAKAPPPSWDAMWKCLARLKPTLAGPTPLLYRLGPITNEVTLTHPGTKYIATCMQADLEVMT
Description: MBHA, DNA substrate, genotype 2a helicase. Format: biochemical, hepatitis C virus genotype 2a(JFH1). The method, then:
All oligonucleotides were purchased from Integrated DNA Technologies (IDT, Coralville, Iowa). Primuline derivatives were synthesized and purified as described herein. Three different NS3 proteins were used in this study. Two were truncated C-terminally His-tagged NS3 proteins lacking the N-terminal protease, called NS3h, the third was a full-length NS3 with the portion of NS4A needed for protease activation fused to its N-terminus, called scNS4A-NS3 (Howe, et al. (1999) Protein Sci. 8:1332-41), and the fourth was a 23 kDa scNS4A-NS3 protease fragment lacking the helicase domains, called scNS4A-NS3p (Protein One, Rockville, Md.). NS3h was expressed from two different HCV strains. NS3h_1b(con1) was from the con1 strain of genotype 1b (GENBANK accession AB114136), and NS3h_2a(JFH1) was from the JFH1 strain of HCV genotype 2a (GENBANK accession AJ238799). […] His-tagged recombinant NS3h_1b(con1), NS3h_2a(JFH1), and scNS4A-NS3 (also from genotype 1b(con1)) were expressed, and purified as previously described (Frick, et al. (2010) supra; Lam, et al. (2003) J. Virol. 77:3950-3961). The scNS4A-NS3p (genotype 1b) was from Protein One. A plasmid expressing NS3h from dengue virus strain 2 (NS3h_DV2)(GENBANK accession 2BMF) is known in the art (Xu, et al. (2005) J. Virol. 79:10278-10288), and used to express and purify NS3h_DV2 (Belon, et al. (2010) supra)
Compounds that specifically target less conserved regions of a HCV protein are often not potent inhibitors of the same protein derived from other genotypes, and they might be susceptible to rapid evolution of related viruses. As described herein, primuline derivatives can inhibit HCV helicase isolated from the genotype 1b(con1) strain. Therefore to further analyze specificity, the subset of primuline analogs was tested on the helicase isolated from the genotype 2a(JFH1) strain. The two recombinant proteins differ at 83 of their 480 amino acids. The JHF1 strain is also of interest because it serves as the backbone for HCV strains capable of replicating in cell culture (Wakita, et al. (2005) Nat. Med. 11:791-796). The molecular beacon-based helicase assay (MBHA) (Belon & Frick (2008) supra) was used to measure the ability of each compound to inhibit DNA unwinding catalyzed by NS3h isolated from genotype 2a(JFH1) (NS3h_2a(JFH1)). […] Selected compounds were also tested for the ability to inhibit helicase reactions catalyzed by full-length NS3 and a single chain NS4A-NS3 protein (scNS4A-NS3) described below and used for protease assays.

Setting [3] is: Huh7.5, 10 μM, read-out: Replicon (% Inhibition @ 10 μM).
Where [4] appears, read: genotype 2a (JFH1), read-out: Target Potency MBHA (IC50 avg., μM) 2a (JFH1) (converted).
Where [5] appears, read: Huh7.5, 10 μM compound, triplicate, average ± SD, read-out: HCV replication (% Inh.).
Setting [6] is: DNA-based MBHA, genotype 2a(JFH1), read-out: DNA Helicase NS3h_2a IC50 (μM) ± SD.
Setting [7] is: Huh7.5, read-out: HCV replication (% Inh.).
[8] abbreviates: Huh7.5, read-out: Replicon (% Inhibition @ 10 μM).
Where [9] appears, read: Target Potency MBHA (IC50 avg., μM) 2a (JFH1), genotype 2a (JFH1).

The source of these data is US9464064B2, “HCV helicase inhibitors and methods of use thereof” (University of Kansas, priority 2011, dated 2016).

Like-named read-outs stand apart in the source and are kept apart here.

The IC50 is the point on the concentration scale where inhibition reaches its midpoint. For `Cc1ccc2nc(-c3ccc4nc(-c5ccc(NC(=O)c6ccc7ncoc7c6)cc5)sc4c3)sc2c1S(=O)(=O)O`, in experiment [1] (setting [3]), the inhibition at 10 µM stood at 15 ± 11%. Besides, in experiment [2] (setting [4]), the half-maximal inhibitory concentration (IC50) is 6.4 µM.
Turning to `Cc1ccc2nc(-c3ccc4nc(-c5ccc(NS(=O)(=O)c6ccc(C(F)(F)F)cc6)cc5)sc4c3)sc2c1S(=O)(=O)O`, the inhibition at 10 µM in experiment [1] (setting [3]) is -7 ± 14%. The IC50 in experiment [2] (setting [4]) was 35 µM.
As for `Cc1ccc2nc(-c3ccc(NC(=O)c4ccc(C(F)(F)F)cc4)cc3)sc2c1S(=O)(=O)O`, the inhibition at 10 µM in experiment [1] (setting [3]) stood at 11 ± 14%. Further, the IC50 in experiment [2] (setting [4]) was greater than 100 µM.
The like results for `Cc1ccc2nc(-c3ccc(NC(=O)c4ccc(N)cc4)cc3)sc2c1S(=O)(=O)O` were, in that order, 21 ± 29% and 64 µM.
With `Cc1ccc2nc(-c3ccc(NC(=O)c4ccc(NS(=O)(=O)c5ccccc5)cc4)cc3)sc2c1S(=O)(=O)O`, in experiment [1] (setting [3]), the inhibition at 10 µM is -73 ± 50%. The IC50 in experiment [2] (setting [4]) was greater than 100 µM.
Consider `Cc1ccc2nc(-c3ccc(NC(=S)Nc4ccccc4Br)cc3)sc2c1`, for which the inhibition at 10 µM in experiment [1] (setting [3]) was 80 ± 17%. The IC50 in experiment [2] (setting [4]) is greater than 100 µM.
The like results for `Cc1ccc2nc(-c3ccc4nc(NC(=O)c5ccc6ncoc6c5)sc4c3)sc2c1` were, in that order, 90 ± 35% and 75 ± 32.6 µM.
In the case of `Cc1ccc2nc(-c3ccc4nc(-c5ccc(NC(=O)c6ccccc6)cc5)sc4c3)sc2c1S(=O)(=O)O` [Compound 5, 2′-(4-benzamidophenyl)-6-methyl-[2,6′-bibenzo[d]thiazole]-7-sulfonic acid], the inhibition at 10 µM in experiment [1] (setting [5]) and in experiment [1] (setting [3]) was 45 ± 5% throughout. Besides, the IC50 in experiment [2] (setting [4]) is 4.6 ± 1.4 µM.
Consider `Cc1ccc2nc(-c3ccc4nc(-c5ccc(NC(=O)c6ccc(N)cc6)cc5)sc4c3)sc2c1S(=O)(=O)O` [Compound 6, 2′-(4-(4-aminobenzamido)phenyl)-6-methyl-[2,6′-bibenzo[d]thiazole]-7-sulfonic acid], for which the inhibition at 10 µM in experiment [1] (setting [5]) and in experiment [1] (setting [3]) was 33 ± 1% each time. Moreover, the figures for the IC50 in experiment [2] (setting [6]) and in experiment [2] (setting [4]) were 5 ± 2.5 µM and 5.3 ± 2.5 µM, respectively.
Regarding `Cc1ccc2nc(-c3ccc4nc(-c5ccc(NC(=O)c6ccc(F)cc6)cc5)sc4c3)sc2c1S(=O)(=O)O.N` [Compound 7, 2′-(4-(4-fluorobenzamido)phenyl)-6-methyl-[2, bibenzo[d]thiazole]-7-sulfonic acid], the inhibition at 10 µM in experiment [1] (setting [5]) and in experiment [1] (setting [3]) was 50 ± 5% throughout. Further, the IC50 in experiment [2] (setting [6]) and in experiment [2] (setting [4]) was 3 ± 0.8 µM in each case.
As for `COc1ccc(C(=O)Nc2ccc(-c3nc4ccc(-c5nc6ccc(C)c(S(=O)(=O)O)c6s5)cc4s3)cc2)cc1` [Compound 8, 2′-(4-(4-methoxybenzamido)phenyl)-6-methyl-[2,6′-bibenzo[d]thiazole]-7-sulfonic acid], the inhibition at 10 µM in experiment [1] (setting [7]) and in experiment [1] (setting [8]) was 64 ± 4% each time. For the same molecule, the IC50 in experiment [2] (setting [9]) turned out to be 5.4 ± 1.4 µM.
As to `COC(=O)c1ccc(C(=O)Nc2ccc(-c3nc4ccc(-c5nc6ccc(C)c(S(=O)(=O)O)c6s5)cc4s3)cc2)cc1` [Compound 9, 2′-(4-(4-(methoxycarbonyl)benzamido)phenyl)-6-methyl-[2,6′-bibenzo[d]thiazole]-7-sulfonic acid], the inhibition at 10 µM in experiment [1] (setting [5]) and in experiment [1] (setting [3]) was 40 ± 1% each time. Besides, in experiment [2] (setting [4]), the IC50 is 2.4 ± 0.6 µM.
As to `Cc1ccc2nc(-c3ccc4nc(-c5ccc(NC(=O)c6ccc(Cl)cc6)cc5)sc4c3)sc2c1S(=O)(=O)O` [Compound 10, 2′-(4-(4-chlorobenzamido)phenyl)-6-methyl-[2,6′-bibenzo[d]thiazole]-7-sulfonic acid], the inhibition at 10 µM in experiment [1] (setting [7]) and in experiment [1] (setting [8]) was 42 ± 9% in each case. In experiment [2] (setting [9]), this molecule gave an IC50 of 2.3 ± 0.5 µM.
Consider `Cc1ccc(C(=O)Nc2ccc(-c3nc4ccc(-c5nc6ccc(C)c(S(=O)(=O)O)c6s5)cc4s3)cc2)cc1` [Compound 11, 6-methyl-2′-(4-(4-methylbenzamido)phenyl)-[2,6′-bibenzo[d]thiazole]-7-sulfonic acid], for which the inhibition at 10 µM in experiment [1] (setting [5]) and in experiment [1] (setting [3]) was 52 ± 12% each time. Besides, in experiment [2] (setting [4]), the half-inhibitory concentration (IC50) was 2.5 ± 0.5 µM.
As for `Cc1ccc2nc(-c3ccc4nc(-c5ccc(NC(=O)c6ccc(C(F)(F)F)cc6)cc5)sc4c3)sc2c1S(=O)(=O)O` [Compound 12, 6-methyl-2′-(4-(4-(trifluoromethyl)benzamido)phenyl)-[2,6′-bibenzo[d]thiazole]-7-sulfonic acid], the inhibition at 10 µM in experiment [1] (setting [5]) and in experiment [1] (setting [3]) was 44 ± 12% in each case. The figures for the IC50 in experiment [2] (setting [6]) and in experiment [2] (setting [4]) were 2 ± 1 µM and 2.5 ± 1 µM, respectively.
For `Cc1ccc2nc(-c3ccc4nc(-c5ccc(N)cc5)sc4c3)sc2c1S(=O)(=O)O` [Compound P2a, 2′-(4-aminophenyl)-6-methyl-[2,6′-bibenzo[d]thiazole]-7-sulfonic acid], in experiment [2] (setting [6]), the IC50 was determined as 58 ± 51 µM.
With `Cc1ccc2nc(-c3ccc4nc(-c5ccc6nc(-c7ccc(N)cc7)sc6c5)sc4c3)sc2c1S(=O)(=O)O` [Compound P3, 2″-(4-aminophenyl)-6-methyl-[2,6′:2′,6″-terbenzo[d]thiazole]-7-sulfonic acid], the “ability to decrease the amount of HCV RNA present in the cultures” value in experiment [1] (10 μM) is given as “showed any ability to decrease the amount of HCV RNA present in the cultures”.
